Assays:
[1] = target: T1, ALK5 (Homo sapiens, UniProt P36897); test: TR-FRET enzymatic ALK kinase assay, ALK5
T1 sequence (P36897 34-503): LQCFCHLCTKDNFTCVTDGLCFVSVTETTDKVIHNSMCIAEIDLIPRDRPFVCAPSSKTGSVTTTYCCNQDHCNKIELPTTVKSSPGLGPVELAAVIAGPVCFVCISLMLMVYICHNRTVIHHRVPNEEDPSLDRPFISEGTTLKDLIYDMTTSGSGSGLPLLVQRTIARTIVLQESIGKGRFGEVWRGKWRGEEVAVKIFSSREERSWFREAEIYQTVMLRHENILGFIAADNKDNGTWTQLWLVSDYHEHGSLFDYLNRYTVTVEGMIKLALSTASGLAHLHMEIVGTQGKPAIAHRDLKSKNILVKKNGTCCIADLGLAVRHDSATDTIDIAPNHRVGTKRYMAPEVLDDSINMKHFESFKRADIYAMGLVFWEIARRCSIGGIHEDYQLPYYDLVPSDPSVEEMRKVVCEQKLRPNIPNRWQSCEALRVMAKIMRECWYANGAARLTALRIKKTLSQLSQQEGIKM
Description: Six ALK kinase enzyme assays were developed for determination of compound activities on ALK1, ALK2, ALK3, ALK4, ALK5 and ALK6.
(§1) Briefly, the ALKs enzymatic assay was initiated by dispense 2.5 μl enzyme in 1× kinase reaction buffer. The assay plate was then added with compounds followed by incubation at room temperature for 10 minutes. Then 2.5 μl/well substrate was added.

[2] = target: ALK6 (Homo sapiens, UniProt O00238); test: TR-FRET enzymatic ALK kinase assay, ALK6
ALK6, sequence (O00238 14-502): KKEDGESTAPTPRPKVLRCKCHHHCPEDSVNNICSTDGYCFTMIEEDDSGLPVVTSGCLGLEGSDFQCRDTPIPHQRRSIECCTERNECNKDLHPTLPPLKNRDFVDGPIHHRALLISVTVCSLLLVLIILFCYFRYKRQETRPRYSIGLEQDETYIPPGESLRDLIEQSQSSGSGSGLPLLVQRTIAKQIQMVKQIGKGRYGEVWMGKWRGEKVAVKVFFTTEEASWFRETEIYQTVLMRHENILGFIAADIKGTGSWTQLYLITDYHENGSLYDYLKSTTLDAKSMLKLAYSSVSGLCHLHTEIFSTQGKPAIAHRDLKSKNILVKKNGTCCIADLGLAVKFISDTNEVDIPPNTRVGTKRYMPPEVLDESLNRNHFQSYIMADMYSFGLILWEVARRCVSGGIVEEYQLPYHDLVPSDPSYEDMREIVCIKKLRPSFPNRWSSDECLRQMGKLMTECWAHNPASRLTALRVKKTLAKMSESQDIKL
Description: as §1

[3] = target: ALK3 (Homo sapiens, UniProt P36894); test: TR-FRET enzymatic ALK kinase assay, ALK3
ALK3, sequence (P36894 24-532): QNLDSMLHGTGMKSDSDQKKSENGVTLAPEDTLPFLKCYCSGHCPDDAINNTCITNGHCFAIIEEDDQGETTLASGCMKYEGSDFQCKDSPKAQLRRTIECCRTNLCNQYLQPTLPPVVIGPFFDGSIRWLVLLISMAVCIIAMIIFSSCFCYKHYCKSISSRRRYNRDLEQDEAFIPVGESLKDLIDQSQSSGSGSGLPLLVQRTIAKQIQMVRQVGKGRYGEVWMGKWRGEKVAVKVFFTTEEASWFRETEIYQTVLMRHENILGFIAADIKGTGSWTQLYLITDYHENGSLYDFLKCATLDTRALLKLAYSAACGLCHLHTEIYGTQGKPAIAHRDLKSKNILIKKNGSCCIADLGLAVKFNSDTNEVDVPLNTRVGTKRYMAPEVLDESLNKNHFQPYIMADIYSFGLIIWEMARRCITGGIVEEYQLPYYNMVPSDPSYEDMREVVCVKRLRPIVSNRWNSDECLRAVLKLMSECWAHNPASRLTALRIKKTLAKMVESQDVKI
Description: as §1

[4] = target: T2, ALK4 (Homo sapiens, UniProt P36896); test: TR-FRET enzymatic ALK kinase assay, ALK4
T2 sequence (P36896 24-505): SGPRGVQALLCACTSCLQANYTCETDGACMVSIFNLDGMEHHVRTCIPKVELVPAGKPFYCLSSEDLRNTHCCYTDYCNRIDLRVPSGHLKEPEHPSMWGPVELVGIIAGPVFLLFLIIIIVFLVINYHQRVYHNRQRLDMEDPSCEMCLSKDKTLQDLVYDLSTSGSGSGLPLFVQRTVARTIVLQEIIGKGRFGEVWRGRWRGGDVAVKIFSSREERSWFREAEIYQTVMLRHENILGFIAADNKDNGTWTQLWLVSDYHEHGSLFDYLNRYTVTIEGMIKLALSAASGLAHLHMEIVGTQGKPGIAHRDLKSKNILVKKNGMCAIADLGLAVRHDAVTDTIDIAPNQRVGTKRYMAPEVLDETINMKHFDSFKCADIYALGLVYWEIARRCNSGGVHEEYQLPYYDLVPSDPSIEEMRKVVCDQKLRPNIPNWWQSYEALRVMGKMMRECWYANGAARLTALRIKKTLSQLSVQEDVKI
Description: as §1

[5] = target: ALK1 (Homo sapiens, UniProt P37023); test: TR-FRET enzymatic ALK kinase assay, ALK1
ALK1, sequence (P37023 22-503): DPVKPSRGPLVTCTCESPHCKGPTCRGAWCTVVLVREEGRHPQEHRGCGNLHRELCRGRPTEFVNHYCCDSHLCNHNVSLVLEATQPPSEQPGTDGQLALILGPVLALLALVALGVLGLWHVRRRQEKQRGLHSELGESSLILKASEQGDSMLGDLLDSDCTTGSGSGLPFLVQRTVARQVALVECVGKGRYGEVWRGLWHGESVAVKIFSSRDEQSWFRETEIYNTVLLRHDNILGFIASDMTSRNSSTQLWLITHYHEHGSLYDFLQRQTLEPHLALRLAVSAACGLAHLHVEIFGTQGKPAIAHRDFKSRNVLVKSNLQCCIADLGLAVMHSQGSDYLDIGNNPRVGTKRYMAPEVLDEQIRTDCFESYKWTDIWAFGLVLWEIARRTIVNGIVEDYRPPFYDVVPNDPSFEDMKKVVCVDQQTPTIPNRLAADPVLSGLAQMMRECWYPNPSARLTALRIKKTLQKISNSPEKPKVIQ
Description: as §1

[6] = target: T3, ALK2 (Homo sapiens, UniProt Q04771); test: TR-FRET enzymatic ALK kinase assay, ALK2
T3 sequence (Q04771 21-509): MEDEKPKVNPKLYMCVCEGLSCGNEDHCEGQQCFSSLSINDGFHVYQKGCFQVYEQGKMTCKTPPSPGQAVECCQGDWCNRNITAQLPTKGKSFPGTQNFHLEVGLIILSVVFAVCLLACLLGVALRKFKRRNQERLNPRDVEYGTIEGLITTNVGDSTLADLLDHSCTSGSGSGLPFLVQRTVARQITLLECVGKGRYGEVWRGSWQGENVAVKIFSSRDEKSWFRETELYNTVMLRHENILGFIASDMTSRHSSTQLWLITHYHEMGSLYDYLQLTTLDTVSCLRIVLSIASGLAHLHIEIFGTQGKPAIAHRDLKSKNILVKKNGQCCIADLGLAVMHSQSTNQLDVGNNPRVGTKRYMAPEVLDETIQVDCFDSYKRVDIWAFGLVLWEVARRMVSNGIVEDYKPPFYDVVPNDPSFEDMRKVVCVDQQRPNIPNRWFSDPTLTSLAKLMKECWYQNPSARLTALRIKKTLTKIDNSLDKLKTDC
Description: as §1

Row | SMILES | IC50 [1] [µM] | IC50 [2] [µM] | IC50 [3] [µM] | IC50 [4] [µM] | IC50 [5] [µM] | IC50 [6] [µM]
1 | CS(=O)(=O)c1cccc(-c2cnn3cc(-c4ccc(OC5(CN6CCCC6)CC5)cc4)cnc23)c1 [Compound 170, 3-(3-(methylsulfonyl)phenyl)-6-(4-(1-(pyrrolidin-1-ylmethyl)cyclopropoxy)phenyl)pyrazolo[1,5-a]pyrimidine] | > 10 | 9.6 | 1.5 | > 10 | 0.27 | 0.033
2 | CC(O)c1cccc(-c2cnn3cc(-c4ccc(CCN5CCNCC5)cc4)cnc23)c1 (stereo not drawn) [Compound 171, 1-(3-(6-(4-(2-(piperazin-1-yl)ethyl)phenyl)pyrazolo[1,5-a]pyrimidin-3-yl)phenyl)ethanol] | > 10 | > 10 | 2 | > 10 | 1.1 | 0.17
3 | CS(=O)(=O)c1cc(-c2cnn3cc(-c4ccc(CCN5CCCCC5)cc4)cnc23)cc(C(F)(F)F)c1 [Compound 172, 3-(3-(methylsulfonyl)-5-(trifluoromethyl)phenyl)-6-(4-(2-(piperidin-1-yl)ethyl)phenyl)pyrazolo[1,5-a]pyrimidine] | > 10 | > 10 | > 10 | > 10 | > 10 | 1.2
4 | CC(O)c1cccc(-c2cnn3cc(-c4ccc(OC5(CN6CCC(O)CC6)CC5)cc4)cnc23)c1 (stereo not drawn) [Compound 174] | > 10 | > 10 | 1.6 | > 10 | 0.79 | 0.043
5 | C[S+](=O)([O-])c1cccc(-c2cnn3cc(-c4ccc(OC5(CN6CC(F)(F)C6)CC5)cc4)cnc23)c1 [Compound 176, 6-(4-(1-((3,3-difluoroazetidin-1-yl)methyl)cyclopropoxy)phenyl)-3-(3-(methylsulfonyl)phenyl)pyrazolo[1,5-a]pyrimidine] | > 10 | > 10 | 2.4 | > 10 | 0.72 | 0.068
6 | CC(O)c1cccc(-c2cnn3cc(-c4ccc(OC5(CN6CCOCC6)CC5)cc4)cnc23)c1 (stereo not drawn) [Compound 177, 1-(3-(6-(4-(1-(morpholinomethyl)cyclopropoxy)phenyl)pyrazolo[1,5-a]pyrimidin-3-yl)phenyl)ethanol] | > 10 | > 10 | 0.89 | > 10 | 0.77 | 0.045
7 | C[S+](=O)([O-])c1cccc(-c2cnn3cc(-c4ccc(CCN5CCC6(CC5)CNC6)cc4)cnc23)c1 [Compound 178, 6-(4-(2-(2,7-diazaspiro[3.5]nonan-7-yl)ethyl)phenyl)-3-(3-(methylsulfonyl)phenyl)pyrazolo[1,5-a]pyrimidine] | > 10 | > 10 | > 10 | > 10 | > 10 | 0.092
8 | C[S+](=O)([O-])c1cccc(-c2cnn3cc(-c4ccc(OC5(CN6CCOCC6)CC5)cc4)cnc23)c1 [Compound 179, 4-((1-(4-(3-(3-(methylsulfonyl)phenyl)pyrazolo[1,5-a]pyrimidin-6-yl)phenoxy)cyclopropyl)methyl)morpholine] | > 10 | 3.6 | 0.75 | > 10 | 0.38 | 0.031
9 | NC(c1cccc(-c2cnn3cc(-c4ccc(OC5(CN6CCC(O)CC6)CC5)cc4)cnc23)c1)C(F)(F)F (stereo not drawn) [Compound 180, 1-((1-(4-(3-(3-(1-amino-2,2,2-trifluoroethyl)phenyl)pyrazolo[1,5-a]pyrimidin-6-yl)phenoxy)cyclopropyl)methyl)piperidin-4-ol] | > 10 | > 10 | 3.8 | > 10 | 1.3 | 0.062
10 | NC(c1cccc(-c2cnn3cc(-c4ccc(OC5(CN6CCOCC6)CC5)cc4)cnc23)c1)C(F)(F)F (stereo not drawn) [Compound 181, 2,2,2-trifluoro-1-(3-(6-(4-(1-(morpholinomethyl)cyclopropoxy)phenyl)pyrazolo[1,5-a]pyrimidin-3-yl)phenyl)ethanamine] | > 10 | > 10 | 3.3 | > 10 | 2 | 0.07
11 | NC(c1cccc(-c2cnn3cc(-c4ccc(OC5(CN6CCC(O)C6)CC5)cc4)cnc23)c1)C(F)(F)F (stereo not drawn) [Compound 182, 1-((1-(4-(3-(3-(1-amino-2,2,2-trifluoroethyl)phenyl)pyrazolo[1,5-a]pyrimidin-6-yl)phenoxy)cyclopropyl)methyl)pyrrolidin-3-ol] | > 10 | > 10 | 4.9 | > 10 | 2 | 0.12
12 | C[S+](=O)([O-])c1cccc(-c2cnn3cc(-c4ccc(OC5(CN6C7CCC6CC7)CC5)cc4)cnc23)c1 [Compound 183, 6-(4-(1-(7-azabicyclo[2.2.1]heptan-7-ylmethyl)cyclopropoxy)phenyl)-3-(3-(methylsulfonyl)phenyl)pyrazolo[1,5-a]pyrimidine] | > 10 | > 10 | 1.9 | > 10 | 0.26 | 0.02
13 | C[S+](=O)([O-])c1cccc(-c2cnn3cc(-c4ccc(OC5(CN6CCC7(CC6)CNC7)CC5)cc4)cnc23)c1 [Compound 184, 6-(4-(1-(2,7-diazaspiro[3.5]nonan-7-ylmethyl)cyclopropoxy)phenyl)-3-(3-(methylsulfonyl)phenyl)pyrazolo[1,5-a]pyrimidine] | > 10 | > 10 | 2.3 | > 10 | 0.32 | 0.023
14 | C[S+](=O)([O-])c1cccc(-c2cnn3cc(-c4ccc(OC5(CN6CCCC(O)C6)CC5)cc4)cnc23)c1 (stereo not drawn) [Compound 186, 1-((1-(4-(3-(3-(methylsulfonyl)phenyl)pyrazolo[1,5-a]pyrimidin-6-yl)phenoxy)cyclopropyl)methyl)piperidin-3-ol] | > 10 | > 10 | 0.5 | > 10 | 0.27 | 0.02
15 | CC(N)c1ccc(-c2cnc3c(-c4cccc([S+](C)(=O)[O-])c4)cnn3c2)cc1 (stereo not drawn) [Compound 187, 1-(4-(3-(3-(methylsulfonyl)phenyl)pyrazolo[1,5-a]pyrimidin-6-yl)phenyl)ethanamine] | > 10 | > 10 | > 10 | > 10 | 0.43 | 0.033
16 | CC(N)c1ccc(-c2cnc3c(-c4cccc(C(C)O)c4)cnn3c2)cc1 (stereo not drawn) [Compound 188, 1-(3-(6-(4-(1-aminoethyl)phenyl)pyrazolo[1,5-a]pyrimidin-3-yl)phenyl)ethanol] | > 10 | 8.1 | 4.7 | 4.1 | 0.97 | 0.073
17 | CS(=O)(=O)c1cccc(-c2cnn3cc(-c4ccc(C5(N)CC5)cc4)cnc23)c1 [Compound 190, 1-(4-(3-(3-(methylsulfonyl)phenyl)pyrazolo[1,5-a]pyrimidin-6-yl)phenyl)cyclopropanamine] | > 10 | > 10 | 2.5 | > 10 | 0.46 | 0.044
18 | CC(O)c1cccc(-c2cnn3cc(-c4ccc(C5(N)CC5)cc4)cnc23)c1 (stereo not drawn) [Compound 191, 1-(3-(6-(4-(1-aminocyclopropyl)phenyl)pyrazolo[1,5-a]pyrimidin-3-yl)phenyl)ethanol] | > 10 | > 10 | 5.4 | > 10 | 1.5 | 0.12

— US10513521B2, “Compositions and methods for inhibiting BMP” (The Brigham and Women's Hospital, Inc., priority 2014, dated 2019)
